Assay results reported in patent US11229618B2 (Amarin Pharmaceuticals Ireland Limited, priority 2012, dated 2022).

Legend:
[1] = Phase 1 multidose pharmacokinetic study: unesterified EPA in plasma (LC-MS/MS); assay type: in vivo, human; conditions: for Unesterified EPA in plasma, CL/F: day 28
Experimental: A study to characterize the pharmacokinetics of ethyl eicosapentaenoate in plasma and red blood cells after multiple-dose administration of IPE at 2 g per day and 4 g per day was performed in healthy adult male and female humans.
The study was a phase 1, open-label, randomized, multidose study in healthy, nonsmoking men and women aged>18 and ≤55 years with a body mass index (BMI)>18 and ≤30 kg/m′. Exclusion criteria included use within 6 weeks prior to randomization through study end of any lipid-altering medications or supplements, including statins, niacin at levels of greater than 200 mg/day, fibrates, ezetimibe, bile acid sequestrants, omega-3 fatty acid medications, and supplements or foods enriched with omega-3 fatty acids (no more than 2 servings of fish per week were permitted).
Following a 14-day screening period, subjects entered a 28-day treatment period and were randomized to one of four IPE dose regimen treatment groups as shown in FIG. 1. Group 1 received IPE 2 g daily (1000-mg capsules; twice-daily [BID] regimen); Group 2 received IPE 4 g daily (1000-mg capsules; BID regimen); Group 3 received IPE 2 g daily (1000-mg capsules; once-daily [QD] regimen); and Group 4 received IPE 2 g daily (500-mg capsules; BID regimen). Treatment was administered orally, with or following a meal in the morning and evening for BID regimens, or in the morning only for the QD regimen. Subjects then entered an 18-day post-treatment pharmacokinetic sampling period.
Fasting EPA concentrations were measured with a validated liquid chromatography with tandem mass spectrometry (LC-MS/MS) method in plasma and RBCs prior to the morning dose (days 1, 14, 26, 28) and at serial time points (1, 3, 5, 6, 8, 10, 12, 24, 48, 72, 120, 192, 312, and 432 hours) after the morning dose on day 28. After the last dose on day 28, EPA concentrations were followed for 18 days to estimate the expected long half-life of EPA. Total plasma EPA included all EPA forms (unesterified EPA and that incorporated in phospholipids, triacylglycerols, and cholesteryl esters). In RBCs, EPA was measured in the cell membrane, where EPA is mainly incorporated in phospholipids.
For total EPA in plasma and RBCs, lipids were isolated by acid/methanol/chloroform extraction followed by centrifugation and purified by isohexane and solid-phase extraction after confirmed complete lipid hydrolysis and transmethylation (acid/methanol, 50° C. overnight). For unesterified EPA in plasma, 25 μL of an inhibitor solution (0.5 g sodium fluoride, 1.0 g L-ascorbic acid, and 0.25 g 5-methylisoxazole-3-carboxylic acid per 10 mL water) was included per 1 mL plasma sample to prevent degradation and lipids were isolated by centrifugation after methanol/chloroform extraction (without hydrolysis or methylation) and further purified by protein precipitation and solid-phase extraction. Quantitation utilized linolenic acid as an internal standard and EPA as the standard for the calibration curve; for total plasma EPA, RBC EPA, and unesterified EPA, the lower limits of quantitation were 10 μg/mL, 5 μg/mL, and 50 ng/mL, respectively. EPA concentrations were measured at Charles River Laboratories Ltd (Elphinstone Research Center, Tranent, Edinburgh, Scotland, UK).
Unless otherwise specified, all reported parameters are based on baseline-subtracted concentrations (baseline is due to EPA derived from dietary sources).

[2] = Phase 1 multidose pharmacokinetic study: safety and tolerability; assay type: in vivo, human; conditions: all groups
Excerpt: The safety population was defined as all randomized subjects who received at least one dose of study drug. The per-protocol population was defined as all safety population subjects who completed the 28-day treatment period without any major protocol deviations, and who provided blood samples for EPA analyses.
Safety assessments consisted of adverse event (AE) monitoring, clinical laboratory measurements (chemistry, hematology, and urinalysis) 12-lead electrocardiographic measurements, vital signs (systolic and diastolic blood pressure, heart rate, respiratory rate, and oral body temperature) and physical examination findings.

[3] = about 2 g orally twice per day, human

SMILES: CC/C=C\C/C=C\C/C=C\C/C=C\C/C=C\CCCC(=O)OCC [IPE, all-cis eicosa-5,8,11,14,17-pentaenoic acid ethyl ester]
- Unesterified EPA in plasma, CL/F ([1]; Group 1: IPE 2 g/d 1 × 1000 mg BID): 364,513 mL/hr
- Unesterified EPA in plasma, CL/F ([1]; Group 2: IPE 4 g/d 2 × 1000 mg BID): 234,329 mL/hr
- Unesterified EPA in plasma, CL/F ([1]; Group 3: IPE 2 g/d 2 × 1000 mg QD): 241,855 mL/hr
- Unesterified EPA in plasma, CL/F ([1]; Group 4: IPE 2 g/d 2 × 500 mg BID): 326,622 mL/hr
- mean plasma CL/F of unesterified eicosapentaenoic acid ([1]; about 1 g orally twice per day, human): about 364,513+/−214,003 mL/h
- mean plasma AUC0-24h of unesterified eicosapentaenoic acid [1, 3]: about 18.4+/−4.6 μg·h/mL
- mean plasma CL/F of unesterified eicosapentaenoic acid [1, 3]: about 234,329+/−81,639 mL/h
- mean plasma Calm of unesterified eicosapentaenoic acid [1, 3]: about 1.06+/−0.56 μg/mL
- mean plasma Cmax of unesterified eicosapentaenoic acid [1, 3]: about 1.4+/−0.41 μg/mL
- mean plasma T1/2 of unesterified eicosapentaenoic acid [1, 3]: about 97.2+/−36.5 hours
- median plasma Tmax of unesterified eicosapentaenoic acid [1, 3]: about 5 hours
- changes in laboratory, electrocardiographic, or physical examination findings [2]: no clinically meaningful changes
- intensity of adverse events [2]: mild or moderate in intensity
